Results on six compounds are retold here after patent USRE38117E1, “Trioxane dimer compound having antiproliferative and antitumor activities” (Hauser, Inc., priority 1995, dated 2003).

Test [1] concerns murine keratinocyte cell line PE. Kind of test: Growth inhibition of PE cells (MTT assay). Format: cell-based. Particulars: murine keratinocytes, FIGS. 1-9. The protocol: To determine the inhibitory effect of the trioxane dimers of the present invention on cell proliferation, screening assays were performed on a murine keratinocyte cell line PE. […] PE cell culture medium consisted of Eagle's minimal essential medium without calcium chloride (Whittaker Bioproducts, Walkersville, Ma.) supplemented with 8% chelexed fetal calf serum and 1% antibiotic-antimycotic (Gibco BRL) and the addition of CaCl2 to 0.05 mM Ca^++. […] (St. Louis, Mo.), and TPA was supplied by L. C. Services (Woburn, Ma.). L-[^14C]ornithine ([…]) was from Amersham/Searle Corp. (Arlington Heights, Ill.). Chemical solvents used in all assays of biological activity were of the highest grade commercially available. Growth Inhibition. […] A mitochondrial dehydrogenase reduces MTT to a blue formazan product with an absorbance maximum of 505 nm in DMSO; the number of viable cells can thus be determined spectrophotometrically. PE cells were seeded at a density of 5,000 cells/well in 50 μL of medium into 96-well microtiter plates. […] The plates were fed once at 48 h, with the readdition of the vitamin D3 analogs at this time. […] After 4 h, the MTT was removed and DMSO added to dissolve the blue formazan dye. Using a microtiter plate reader, the […] was then determined and cell number calculated from blank-subtracted absorbance values.
A general note: Tetrazolium assays rely on reduction of a dye to a coloured formazan, in cell work by metabolically active cells.

The test system of the next test is P. berghei. Particulars: Klayman 1985; cited from earlier work.
The test system of test [2] is murine keratinocyte cell line PE. The test can be described thus: Viability of PE cells by trypan blue exclusion. Conditions: 96 h. Format: cell-based.

As to “4β-Hydroxymethyl Trioxane Terephthalate Dimer [Compound 24]”, the antiproliferative activity entry in test [1] is reported as “significant antiproliferative activity”.

In the case of `COC1OC2(C)CCC3CCCC(CCOC(=O)CCCC(=O)OCCC4CCCC5CCC6(C)OOC45C(OC)O6)C31OO2` (stereo not drawn) [Compound 15, Trioxane Bis-ester Dimer], in test [1], the antiproliferative activity result was “the most active”.

For the compound `COC1OC2(C)CCC3CCCC(CCOP(=O)(OCCC4CCCC5CCC6(C)OOC45C(OC)O6)Oc4ccccc4)C31OO2` (stereo not drawn) [Compound 20, Bis-trioxane phosphate ester], the antiproliferative activity entry in test [1] is “Neither phosphate dimers 20, and 21 nor phosphonate dimer 22 has significant antiproliferative activity”.

As to `COC1OC2(C)CCC3CCCC(CCOP(=O)(OC)OCCC4CCCC5CCC6(C)OOC45C(OC)O6)C31OO2` (stereo not drawn) [Compound 21, Bis-trioxane phosphate ester], in test [1], the antiproliferative activity result is “Neither phosphate dimers 20, and 21 nor phosphonate dimer 22 has significant antiproliferative activity”.

Take `CC1=CO[C@@H]2O[C@]3(C)CC[C@H]4[C@H](C)CC[C@@H]1[C@@]24OO3` [III]: the “activity against P. berghei-infected mice” value in the test with P. berghei was “inactive”.

For `C=C1/C(=C\C=C2/CCC[C@]3(C)[C@@H]([C@H](C)CCCC(C)(C)O)CC[C@@H]23)C[C@@H](O)C[C@@H]1O` [calcitriol, 1α, 25-dihydroxyvitamin D3], in test [2], the “viability of the cells” value was “identical to control cells”.
